Positions of bridges follow the written chain, without caps; N, C: chain ends. Residues, ends and D or L forms follow the SMILES beside them.
Assays:
[1] = Inhibition of human alpha9 rat alpha10 nAChR expressed in Xenopus oocytes assessed as inhibition of acetylcholine-induced currents after 300 secs by two-electrode voltage clamp assay; format: cell-based; conditions: Oocyte
[2] = test system: Oocyte; assay: Inhibition of human alpha9 rat alpha10 nAChR expressed in Xenopus oocytes assessed as inhibition of acetylcholine-induced currents at 100 nM after 300 secs by two-electrode voltage clamp assay; format: cell-based
[3] = target: Nicotinic acetylcholine receptor alpha9/alpha10 (Rattus norvegicus, UniProt P43144+Q9JLB5); assay: Inhibition of rat alpha9/alpha10 nAChR expressed in Xenopus oocytes assessed as inhibition of acetylcholine-induced currents after 300 secs by two-electrode voltage clamp assay; format: cell-based, Oocyte
Chain of Nicotinic acetylcholine receptor alpha9/alpha10 (P43144 whole entry): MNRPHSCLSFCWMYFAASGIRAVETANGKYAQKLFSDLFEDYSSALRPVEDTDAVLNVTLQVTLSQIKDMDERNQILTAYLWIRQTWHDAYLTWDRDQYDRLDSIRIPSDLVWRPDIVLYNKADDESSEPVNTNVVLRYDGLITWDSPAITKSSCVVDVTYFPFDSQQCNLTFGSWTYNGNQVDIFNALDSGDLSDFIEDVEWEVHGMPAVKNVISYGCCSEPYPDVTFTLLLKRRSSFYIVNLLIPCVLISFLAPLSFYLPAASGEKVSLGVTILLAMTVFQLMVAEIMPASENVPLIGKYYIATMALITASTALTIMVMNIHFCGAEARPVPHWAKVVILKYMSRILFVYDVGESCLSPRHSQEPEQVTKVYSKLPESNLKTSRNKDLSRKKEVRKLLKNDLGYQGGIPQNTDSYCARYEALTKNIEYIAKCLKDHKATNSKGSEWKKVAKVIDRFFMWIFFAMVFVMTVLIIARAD
Chain of Nicotinic acetylcholine receptor alpha9/alpha10 (Q9JLB5 whole entry): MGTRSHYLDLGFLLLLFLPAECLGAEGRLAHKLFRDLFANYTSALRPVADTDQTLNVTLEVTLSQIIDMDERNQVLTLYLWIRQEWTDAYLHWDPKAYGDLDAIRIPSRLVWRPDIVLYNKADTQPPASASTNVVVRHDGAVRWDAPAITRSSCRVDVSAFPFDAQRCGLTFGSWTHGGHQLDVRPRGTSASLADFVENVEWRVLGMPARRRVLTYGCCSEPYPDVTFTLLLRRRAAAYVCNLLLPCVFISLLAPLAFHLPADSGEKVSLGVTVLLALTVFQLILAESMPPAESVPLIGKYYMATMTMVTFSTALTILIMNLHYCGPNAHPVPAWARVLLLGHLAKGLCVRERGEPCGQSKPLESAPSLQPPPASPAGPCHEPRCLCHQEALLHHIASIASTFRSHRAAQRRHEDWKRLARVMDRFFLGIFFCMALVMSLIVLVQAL

[4] = Selectivity ratio of IC50 for human alpha9 rat alpha10 nAChR to IC50 for rat alpha9/alpha10 nAChR

Q: Which IC50 [1] does the source give for `CC[C@H](C)[C@@H]1NC(=O)[C@H](CCC(=O)O)NC(=O)[C@@H]2CCCN2C(=O)[C@H](Cc2cnc[nH]2)NC(=O)[C@H](CC(=O)O)NC(=O)[C@H](Cc2ccccc2)NC(=O)[C@H](CC(N)=O)NC(=O)[C@@H]2CSSC[C@H](NC(=O)CN)C(=O)N[C@@H](CSSC[C@@H](C(=O)O)NC1=O)C(=O)N[C@@H](CO)C(=O)N[C@@H](CC(=O)O)C(=O)N1CCC[C@H]1C(=O)N[C@@H](CCCNC(=N)N)C(=O)N2` (H-GCCSDPRCNFDHPEIC-OH; disulfide 2-8, 3-16) here?
A: Its IC50 is 763 nM.

Q: And the inhibition [2]?
A: The inhibition was 10%.

Q: What about the IC50 [3] of the same molecule?
A: The IC50 was 500 nM.

Q: Which IC50 [1] does the source give for `CC[C@H](C)[C@@H]1NC(=O)[C@H](CCC(=O)O)NC(=O)[C@@H]2CCCN2C(=O)[C@H](Cc2cnc[nH]2)NC(=O)[C@H](CC(=O)O)NC(=O)[C@H](Cc2ccc(O)cc2)NC(=O)[C@H](CC(N)=O)NC(=O)[C@@H]2CSSC[C@H](NC(=O)CN)C(=O)N[C@@H](CSSC[C@@H](C(=O)O)NC1=O)C(=O)N[C@@H](CO)C(=O)N[C@@H](CC(=O)O)C(=O)N1CCC[C@H]1C(=O)N[C@@H](CCCNC(=N)N)C(=O)N2` here?
A: Its IC50 is 975 nM.

Q: What about the Ratio IC50 [4] of the same molecule?
A: Its Ratio IC50 is 14.

Q: What about the IC50 [3] of the same molecule?
A: Its IC50 is 70 nM.

Q: With `CC[C@H](C)[C@@H]1NC(=O)[C@H](CCC(=O)O)NC(=O)[C@@H]2CCCN2C(=O)[C@H](Cc2cnc[nH]2)NC(=O)[C@H](CC(=O)O)NC(=O)[C@H](Cc2c[nH]c3ccccc23)NC(=O)[C@H](CC(N)=O)NC(=O)[C@@H]2CSSC[C@H](NC(=O)CN)C(=O)N[C@@H](CSSC[C@@H](C(=O)O)NC1=O)C(=O)N[C@@H](CO)C(=O)N[C@@H](CC(=O)O)C(=O)N1CCC[C@H]1C(=O)N[C@@H](CCCNC(=N)N)C(=O)N2` (H-GCCSDPRCNWDHPEIC-OH; disulfide 2-8, 3-16) as the molecule, how does the IC50 [1] read?
A: Its IC50 is 33 nM.

Q: And the inhibition [2]?
A: Its inhibition is 80%.

Q: And the IC50 [3]?
A: Its IC50 is 43 nM.
